From patent US4879303A, “Pharmaceutically acceptable salts” (priority 1986, dated 1989) come the findings set out here.

By solubility is commonly meant the dissolved amount per volume that the medium holds.

Data set [1] is described as follows: Chemical stability of salts blended in powder vehicle (tablets or capsules), breakdown products by tlc, ranked. The protocol:
In order to screen for chemical stability, each of the salts was blended in a powder vehicle and formed into tablets or capsules. In the case of tablets the vehicle comprised microcrystalline cellulose in 50:50 combination with anhydrous dibasic calcium phosphate. In the case of capsules the vehicles comprised mannitol in 4:1 combination with dried maize starch. These were then stored in sealed vials at 50° and 75° C. for up to three weeks. The drug and any breakdown products were extracted with methanol:chloroform (50:50) and separated on silica tlc plates using a variety of solvent systems.
The results were compared and the salts ranked according to the number and amount of breakdown product produced.

Data set [2] can be described thus: Aqueous solubility of amlodipine salts and pH at saturation. It counts as physicochemical. The following applies: for solubility (in words): qualitative statement. The text has this: Although amlodipine is effective as the free base, in practice it is best administered in the form of a salt of a pharmaceutically acceptable acid.
1. Generally, it is known in the art that a good aqueous solubility is necessary for good bioavailability. […] In addition, salts which provide solutions having a pH close to that of blood (7.4) are preferred because they are readily biocompatible and can easily be buffered to the required pH range without altering their solubility.

Data set [3] can be described thus: Hygroscopicity: moisture pick-up on exposure to relative humidity. Particulars: for moisture pick-up: 75% relative humidity, 37° C., 24 hours; for hydration state after exposure: 95% relative humidity, 30° C., 3 days. It counts as physicochemical. From the text:
3. In order to provide stable formulations it is desirable to have a non-hygroscopic salt. In the solid state where drug content is high, absorbed films of moisture can act as a vector for hydrolysis and chemical breakdown. It is the hygroscopic nature of a drug or its salt which contributes to the free moisture which is normally responsible for instability.
Therefore the besylate salt can be considered to be non-hygroscopic and thus provides stale formulations while minimising the risk of intrinsic chemical breakdown.

Data set [4] can be described thus: Stickiness: amlodipine sticking to tablet punch (processability). It counts as physicochemical. Particulars: for processability / anti-adhesion properties (in words): qualitative statement; for Stickiness: runs of 50 to 300 tablets, calcium sulphate dihydrate/microcrystalline cellulose/salt 47.5:47.5:5, average from slope. From the text:
4. The final characteristic of an acceptable salt to be considered is the processability, i.e. the compression properties and also the ability not to stick or adhere to the tablet making machinery. For high dose formulations, good compressibility is very important to make elegant tablets. With lower dose tablets the need for good compressibility can be eliminated to a certain extent by the use of suitable diluting excipients called compression aids. Microcrystalline cellulose is a commonly used compression aid. However whatever the dose the adhesion of the drug to the punches of the tablet machine must be avoided. When drug accumulates on the punch surfaces this causes the tablet surface to become pitted and therefore unacceptable. […] In practice it is possible to reduce sticking by wet-massing, careful selection of excipients and the use of high levels of anti-adherents, e.g. magnesium stearate. […] This procedure was then repeated for runs of 100, 150, 200, 250 and 300 tables. After each run the amount of material sticking to the tablet punch was measured after extraction with methanol. The values are plotted and an average value calculated from the slope of the line produced. This same procedure was then repeated for each of the salts of amlodipine.

Data set [5] is classed as physicochemical. The text has this:
Consequently a range of pharmaceutically acceptable salts of amlodipine has been made and evaluated using these criteria: […]

Data set [6] is described as follows: Hydration / composition after isolation of the salt. Particulars: after manufacture. It counts as physicochemical.
Where [7] appears, read: listed as besylate salt of amlodipine.
Where [8] appears, read: listed as Benzene sulphonate (besylate).
The mark [9] stands for this setting: listed as Toluene sulphonate (tosylate).

Structures can show the parent of a compound that is named as a salt. Where two headings read alike, the source gives them in different places.

In the case of `CCOC(=O)C1=C(COCCN)NC(C)=C(C(=O)OC)C1c1ccccc1Cl` (stereo not drawn) [Acetate], in data set [1], the “Stability (rank order)” value is reported as “.dwnarw”. In data set [2], the solubility amounted to 50000 µg/mL and the pH at saturation worked out at 6.6.
On to `CCOC(=O)C1=C(COCCN)NC(C)=C(C(=O)OC)C1c1ccccc1Cl` (stereo not drawn) [Besylate, amlodipine benzenesulphonate], for which, in data set [3], the “hygroscopicity (overall conclusion)” value is recorded as “non-hygroscopic”, the moisture pick-up entry is “do not pick up any moisture” and the “hydration state after exposure” value is reported as “remain anhydrous”. Further, the “hygroscopicity (overall conclusion)” value in data set [3] (setting [7]) is given as “non-hygroscopicity”. In addition, in data set [1], the “Stability (rank order)” value was “most stable” and the “stability (overall conclusion)” value is given as “good stability”. In addition, in data set [4], the “processability / anti-adhesion properties (in words)” value is listed as “superior anti-adhesion properties to the maleate”, the “Stickiness relative to maleate” value worked out at 59% and the Stickiness was 1.17 g Amlodipine cm^-2 tablet^-1. In data set [4] (setting [7]), the “processability / anti-adhesion properties (in words)” value is given as “good processability”. Besides, in data set [2] (setting [8]), the pH at saturation is 6.6 and the solubility was found to be 4600 µg/mL. Also, the “solubility (in words)” value in data set [2] (setting [7]) is reported as “good solubility characteristics”.
Regarding `CCOC(=O)C1=C(COCCN)NC(C)=C(C(=O)OC)C1c1ccccc1Cl` (stereo not drawn) [Free base, 3-ethyl 5-methyl 2-(2-aminoethoxymethyl)-4-(2-chlorophenyl)-1,4-dihydro-6-methylpyridine-3,5-dicarboxylate], in data set [4], the “Stickiness relative to maleate” value came out at 102% and the Stickiness is recorded as 2.02 g Amlodipine cm^-2 tablet^-1.
Take `CCOC(=O)C1=C(COCCN)NC(C)=C(C(=O)OC)C1c1ccccc1Cl` (stereo not drawn) [Hydrochloride]: in data set [4], the “Stickiness relative to maleate” value was 127% and the Stickiness is on record as 2.51 g Amlodipine cm^-2 tablet^-1. For the same compound, in data set [2], the solubility came out at 50000 µg/mL and the pH at saturation turned out to be 3.5.
As to `CCOC(=O)C1=C(COCCN)NC(C)=C(C(=O)OC)C1c1ccccc1Cl` (stereo not drawn) [Maleate], in data set [3], the moisture pick-up result is “do not pick up any moisture” and the “hydration state after exposure” value is “remain anhydrous”. The “Stability (rank order)” value in data set [1] is on record as “.dwnarw”. Besides, in data set [4], the “Stickiness relative to maleate” value came to 100% and the Stickiness was 1.98 g Amlodipine cm^-2 tablet^-1. Moreover, in data set [2], the solubility was 4500 µg/mL, the pH at saturation turned out to be 4.8 and the “solubility (in words)” value was “excellent solubility”. Also, the stability in solution result in data set [5] is “tends to break-down in solution after a few weeks”.
Turning to `CCOC(=O)C1=C(COCCN)NC(C)=C(C(=O)OC)C1c1ccccc1Cl` (stereo not drawn) [Mesylate], the “hydration after isolation as the anhydride” value in data set [6] is “equilibrates to the monohydrate”. Besides, the “Stability (rank order)” value in data set [1] is “.dwnarw”. In data set [4], the “processability / anti-adhesion properties (in words)” value is recorded as “good processability”, the “Stickiness relative to maleate” value worked out at 58% and the Stickiness is 1.16 g Amlodipine cm^-2 tablet^-1. In addition, the pH at saturation in data set [2] (listed as Methane sulphonate (mesylate)) worked out at 3.1.
Take `CCOC(=O)C1=C(COCCN)NC(C)=C(C(=O)OC)C1c1ccccc1Cl` (stereo not drawn) [Salicylate]: the “Stability (rank order)” value in data set [1] (powder vehicle tablets or capsules, sealed vials, 50° and 75° C., up to three weeks, ranked by number and amount of breakdown product, listed from most stable to unstable) is “.dwnarw”. Moreover, the solubility in data set [2] is 1000 µg/mL.
For `CCOC(=O)C1=C(COCCN)NC(C)=C(C(=O)OC)C1c1ccccc1Cl` (stereo not drawn) [Succinate], in data set [1], the “Stability (rank order)” value is “.dwnarw”. In data set [4], the “Stickiness relative to maleate” value worked out at 121% and the Stickiness is recorded as 2.39 g Amlodipine cm^-2 tablet^-1. In data set [2], the solubility came to 4400 µg/mL and the pH at saturation is given as 4.9.
With `CCOC(=O)C1=C(COCCN)NC(C)=C(C(=O)OC)C1c1ccccc1Cl` (stereo not drawn) [Tosylate], in data set [3], the moisture pick-up result is on record as “do not pick up any moisture” and the “hydration state after exposure” value is “formed the dihydrate salt”. For the same compound, the “Stability (rank order)” value in data set [1] is given as “.dwnarw”. Moreover, in data set [4], the “Stickiness relative to maleate” value was 98% and the Stickiness was 1.95 g Amlodipine cm^-2 tablet^-1. In addition, in data set [2] (setting [9]), the pH at saturation worked out at 5.9 and the solubility stood at 900 µg/mL.
